According to patent publication US6958360B2, “Attractant pheromone for the Colorado potato beetle” (The United States of America as represented by the …, priority 2001, dated 2005):

How the values were obtained:
[1] = tested on: antennal olfactory receptors (short sensillum on the penultimate antennal segment of a CPB); experiment: Single sensillum (single cell) recording of receptor neuron response; parameters: species or system Leptinotarsa decemlineata; details: 100 ng source load; solvent control 8
Method: (§1) Sensitivity of antennal olfactory receptors for the racemate and optical isomers of the male specific compound were tested using coupled GC/EAD and single sensillum recording techniques. GC/EAD tests involved injection of 1 μl of serial dilutions of 3,7-dimethyl-2-oxo-oct-6-ene-1,3-diol (CPB I).

[2] = tested on: CPB adult antenna; experiment: Coupled GC/electroantennogram detection (GC/EAD, EAG); parameters: species or system Leptinotarsa decemlineata; details: for EAD response to compound in volatile collections (in words): volatiles from potato plants / CPB feeding on plant
Method: Vertical bars represent standard errors (N=6, 3 males and 3 females).
GC/EAD analysis of volatile collections: One microlitre samples of volatile collections were injected into a Hewlett Packard™ Model 5890A gas chromatograph (GC) equipped with an HP-5 capillary column (crosslinked 5% PH ME Siloxane; film thickness 0.25 μm; length 30 m; i.d. 0.25 mm) and flame ionization detector (FID). The effluent from the column was split using a Gerstel™ GraphPack-3D/2 splitter with a ratio of ˜1 to the GC (FID): 4 to an electroantennogram preparation of a CPB adult (EAD). The EAD preparation was an adult CPB antenna removed and mounted between two glass capillary electrodes filled with 0.1M NaCl. Ag—AgCl wires in the glass capillaries. An effluent conditioning assembly to carry GC effluent over a CPB antennal preparation, hardware, and software for data collection and analyses using a computer were obtained from SYNTECH (Hilversum, the Netherlands). After an initial temperature of 50° C. held for 2 minutes following injection, the GC oven increased at 15° C./min to 235° C. which was held for 8 minutes.
as §1

[3] = tested on: Colorado potato beetle (CPB); experiment: Open Y-track olfactometer behavioral bioassay, optical isomers vs solvent control; type: in vivo, Leptinotarsa decemlineata; details: serial source loads 0.0001 to 1.0 μg vs solvent control, male and female
Method: Chemical blends and plant foliage were tested for behavioral activity in an open Y-track olfactometer modified after Visser and Piron (Visser, J. H., and P. G. M. Piron, Proceedings of the Section Experimental and Applied Entomology of the Netherlands Entomological Society Amsterdam, 9: 41-46 (1998)) and described in detail by Dickens (Dickens, J. C., Agric. Forest Entomol., 1: 47-54 (1999)). In brief, odorous stimuli emanating from volatile collections from CPB males feeding on potato plants or the male-specific compound on filter paper discs (2.5 cm dia.; Whatman™ #1 filter paper) in Ehrlenmeyer flasks were delivered to either side of the device. Hydrocarbon free air that was humidified by passing through distilled water carried the odor molecules to either arm of the bioassay apparatus. Treatments were replenished after 30 min of use in the bioassay apparatus. Airflow was regulated to 1 l/min by flowmeters. Experiments were conducted in a darkened room at 22° C. in which the only source of light was that associated with the bioassay device. For all bioassays, at least 20 males and 20 females were tested.
Volatile collections from male CPB feeding for three hours on a potato plant and serial dilutions of the male specific compound were tested as 10 μl aliquots placed on a filter paper disc as described above. The male specific compound was tested at 1.0 μg/10 μl solvent (hexane) and in a dilution series ranging from 0.0001 to 1.0 μg/10 μl solvent.
Prior to testing at age 7-14 days, unmated insects were held individually in 5.5 oz. cups, provided with fresh potato foliage on a continuous basis, and maintained under incubator conditions of a 16:8 light:dark cycle, 80-90% R.H., and “day” and “night” temperatures of 25° C. and 23° C., respectively. On the day of testing, insects were transferred to smaller 1 oz. cups and held for 1-3 hrs with moist filter paper but no foliage, then held in darkness for an additional 1-2 hrs.
Individual testing in a darkened room at 22° C. began by allowing the beetle to climb onto or be placed approximately midway up the vertical rod of the “T.” In response to a positive phototaxis to light from a flashlight mounted above the “T” and negative geotaxis, the beetles generally climbed upward. Once the insect began waving its antennae, presumably in response to test odors, its forward progress continued. Orientation was scored as soon as the test insect had moved completely from the horizontal to one of the 45 extension arms of the bioassay device. Following each test, the bioassay device was cleaned with acetone to remove contamination left by the insect. For any given series of tests, approximately half were done with the treatment and associated test apparatus on one side, and half were done with them on the other side.
Laboratory bioassays were assessed for significant differences by the hypothesis on binomial proportions based on the standard normal approximation (Brase, C. H., and C. P. Brase (1983), Understanding Statistics, Lexington, Mass.: D. C. Heath).

[4] = tested on: male CPB; experiment: Enhancement of production of male-specific compound CPB I (24 hour volatile collection); type: in vivo, Leptinotarsa decemlineata
Method: CPB I=male-specific compound; P=6-methyl-5-hepten-2-one; FID=response of flame ionization detector. Electroantennogram (EAD) response is included for A-C.
Volatiles were collected from male CPB feeding on 4.8 g of potato foliage in the 3 L VCC. Collections were made continuously for a 24-hour period with a single VCT. Subsequently, volatiles from groups of 20 female CPB were similarly collected in the 3 L VCC continuously for 24 hours with a single VCT.
In an attempt to increase production of the male specific compound, males were subject to the following treatments: JHIII in acetone, extirpation of both antennae, and extirpation of both antennae+JHIII in acetone. All treatments were repeated at least three times. For the JHIII treatment, […] of a 5 μg/ml solution of JHIII was applied to the prothoracic sternum between the coxae. Antennae were removed at the third segment from the proximal end. All treatments were performed 1 hour before placing beetles into the VCC. For the treatment with both antennae removed+JHIII, three separate collections were made continuously for at least seven days following treatment. The collection chamber was cleaned, rinsed, and fresh foliage added daily.

CC(C)=CCCC(C)(O)C(=O)CO (racemic) [racemic CPB I, 3,7-dimethyl-2-oxo-oct-6-ene-1,3-diol]
action potentials during 500 msec following the initial phasic increase [1]: 18 action potentials | Mean EAG (in words) ([2]; 10 ng injection, males and females combined): intermediate response | orientation preference (in words) [3]: no significant preference

OCCc1ccccc1 [2-phenyl ethanol, reference compound]
EAD response to compound in volatile collections (in words) [2]: an EAD response for 2-phenyl ethanol was also observed

CC(C)=CCC[C@@](C)(O)C(=O)CO [(R)-CPB I]
action potentials during 500 msec following the initial phasic increase [1]: 9 action potentials | orientation preference (in words) [3]: inactive | orientation preference (in words) ([3]; listed as (R)-enantiomer): no significant preference

COC(=O)/C=C(\C)CC/C=C(\C)CC[C@H]1OC1(C)C [JH III, juvenile hormone III]
production of CPB I after topical treatment ([4]; 10 μg JH III topical, 20 males, 24 hour collection, untreated mean 53 ng): 396.2 ng | enhancement of collections of CPB I ([4]; JH III and antennectomy): ~200 × | enhancement of CPB I production relative to untreated males ([4]; JH III topical alone): eightfold | production of CPB I after combined treatment ([4]; JH III topical and antennectomy): 8833 ng | increase of quantities of CPB I released vs control insects ([4]; JH III treatment and antennectomy): 166 times

CCCCCCCCC=O [nonanal, reference compound]
EAD response to compound in volatile collections (in words) [2]: EAD responses were present
